Experimental data taken from US9029366B2, “Substituted bicyclic alkoxy pyrazole analogs as allosteric modulators of mGluR5 receptors” (Vanderbilt University, priority 2012, dated 2015).

How the values were obtained:
[1] = system: amphetamine-induced hyperlocomotion in male Sprague-Dawley rats; assay: Reversal of amphetamine-induced hyperlocomotion (rat hyperlocomotion assay); assay type: in vivo; conditions: vehicle 20% HP-β-CD
Protocol: A suitable assay for determination of the in vivo effects of the disclosed compounds is the induced hyperlocomotion animal model. Briefly, locomotor activity can be assessed as mean distance traveled (cm) in standard 16×16 photocell testing chambers measuring 43.2 cm (Length)×43.2 cm (Width)×30.5 cm (Height) (Med Associates, St. Albans, Vt.). Animals are habituated to individual activity chambers for at least 30 min prior to drug administration. Following administration of drug or vehicle, activity is recorded for a 90 minute time period. Data are expressed as the mean (±SEM) distance traveled recorded in 5 min intervals over the test period. The data are analyzed using repeated measures analysis of variance (ANOVA) followed by post-hoc testing using Dunnett's test, when appropriate. A difference is considered significant when p≦0.05.
The study was carried out using male Sprague-Dawley rats weighing 225 g-275 g, between 2-3 months old (Harlan, Inc., Indianapolis, Ind.). They were kept in the animal care facility certified by the American Association for the Accreditation of Laboratory Animal Care (AALAC) under a 12-hour light/dark cycle (lights on: 6 a.m.; lights off: 6 p.m.) and had free access to food and water. The experimental protocols performed during the light cycle were approved by the Institutional Animals Care and Use Committee of Vanderbilt University and conformed to the guidelines established by the National Research Council Guide for the Care and Use of Laboratory Animals
Locomotor activity was assessed as mean distance traveled (cm) in Smart Open Field locomotor activity test chambers (Hamilton-Kinder, San Diego, Calif.) with 16×16 photobeams with chambers measuring 43.2 cm (Length)×43.2 cm (Width)×30.5 cm (Height) (Med Associates, St. Albans, Vt.). The animals were habituated for 30 min and then dosed with vehicle or test compound. The rats were then placed into cages. At 60 min, all rats were injected subcutaneously with 1 mg/kg amphetamine or vehicle and then monitored for an additional 60 min. Animals are monitored for a total of 120 minutes.
Data are expressed as the mean (±SEM) distance traveled recorded in 5 min intervals over the test period. The data was analyzed using repeated measures analysis of variance (ANOVA) followed by post-hoc testing using Dunnett's test, when appropriate. A difference was considered significant when p≦0.05. The data for the dose-response studies were analyzed by a between-group analysis of variance. If there was a main effect of dose, then each dose group was compared with the vehicle amphetamine group. The calculations were performed using JMP IN 8 (SAS Institute, Cary, N.C.) statistical software and graphed using SigmaPlot9 (Saugua, Mass.).
Amphetamine sulfate was obtained from Sigma (Cat #A5880-1G; St. Louis, Mo.) and 10 mg was dissolved in 10 ml of water. Test compound, 2-(benzyloxy)-5-[(4-fluorophenyl)carbonyl]-4,5,6,7-tetrahydropyrazolo[1,5-a]pyrazine, was formulated in a volume of 10 ml with an amount of drug appropriate to the dosage indicated. The appropriate amount of compound was mixed into a 20% 2-hydroxypropyl-β-cyclodextrin (2-HP-β-CD) solution. The solution was formulated so that animals were injected with a volume equal to […]. The mixture was then ultrahomogenized on ice for 2-3 minutes using the Dismembrator (Fisher Scientific Model 150T). Then the pH was checked using 0-14 EMD strips and adjusted to a pH of 6-7 if necessary. […]

[2] = molecular target: human mGluR5 (Homo sapiens, UniProt P41594); assay: Cell-based functional Ca2+ mobilization assay (FDSS), potentiation of glutamate EC20 response, HEK293A cells transfected with human mGluR5a (H10H or H12H cell line); conditions: H10H cell line expressing recombinant human mGluR5, in presence of glutamate EC20, ** = compound is an antagonist; for EC50: read-out: pEC50 (converted); for Emax: HEK293-A, % of maximal glutamate response
Sequence of human mGluR5 (P41594 21-1180 isoform P41594-2 limits assumed): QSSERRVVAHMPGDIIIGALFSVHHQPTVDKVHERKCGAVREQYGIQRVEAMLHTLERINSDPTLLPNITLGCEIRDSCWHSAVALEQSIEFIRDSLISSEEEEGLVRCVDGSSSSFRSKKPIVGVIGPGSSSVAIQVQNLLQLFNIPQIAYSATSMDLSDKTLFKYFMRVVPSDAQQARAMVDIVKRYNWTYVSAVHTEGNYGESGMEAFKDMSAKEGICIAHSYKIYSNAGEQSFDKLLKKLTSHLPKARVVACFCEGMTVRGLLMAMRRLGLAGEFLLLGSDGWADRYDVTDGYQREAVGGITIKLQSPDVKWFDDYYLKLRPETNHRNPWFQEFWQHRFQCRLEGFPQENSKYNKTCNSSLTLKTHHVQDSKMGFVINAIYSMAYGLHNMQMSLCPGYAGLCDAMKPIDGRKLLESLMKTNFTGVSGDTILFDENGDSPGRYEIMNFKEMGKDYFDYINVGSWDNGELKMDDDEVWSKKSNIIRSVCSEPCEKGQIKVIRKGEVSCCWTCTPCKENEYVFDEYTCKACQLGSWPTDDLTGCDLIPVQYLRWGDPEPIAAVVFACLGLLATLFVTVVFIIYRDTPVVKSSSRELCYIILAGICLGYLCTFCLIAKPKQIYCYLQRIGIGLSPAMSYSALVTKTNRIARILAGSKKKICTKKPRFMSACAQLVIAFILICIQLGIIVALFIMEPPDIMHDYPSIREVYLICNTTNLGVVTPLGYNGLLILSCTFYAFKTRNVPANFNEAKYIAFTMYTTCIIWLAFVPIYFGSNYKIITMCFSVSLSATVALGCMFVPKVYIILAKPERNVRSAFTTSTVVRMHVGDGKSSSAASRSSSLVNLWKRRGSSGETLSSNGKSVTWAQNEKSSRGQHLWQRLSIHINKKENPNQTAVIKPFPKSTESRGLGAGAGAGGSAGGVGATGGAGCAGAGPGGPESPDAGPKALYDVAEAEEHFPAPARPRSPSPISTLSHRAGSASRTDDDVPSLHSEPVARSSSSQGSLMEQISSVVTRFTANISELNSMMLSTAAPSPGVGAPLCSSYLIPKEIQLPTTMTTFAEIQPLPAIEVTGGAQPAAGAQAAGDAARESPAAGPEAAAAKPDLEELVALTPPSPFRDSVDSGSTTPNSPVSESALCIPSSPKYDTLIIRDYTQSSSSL
Protocol: Human embryonic kidney (HEK) cells transfected with rat mGluR5 were plated in clear bottom assay plates for assay in a Functional Drug Screening System (FDSS). In the alternative assay, HEK cells transfected with human mGluR5 were plated for assay in the FDSS. In some cases the HEK cells transfected with human mGluR5 are the H10H cell line. Alternatively, the HEK cells transfected with human mGluR5 are the H12H cell line. […] The cells were loaded with a Ca^2+-sensitive fluorescent dye (e.g., Fluo-4), and the plates were washed and placed in the FDSS instrument. After establishment of a fluorescence baseline for about three seconds, the compounds of the present invention were added to the cells, and the response in cells was measured. Five minutes later, an mGluR5 agonist (e.g., glutamate, 3,5-dihydroxyphenylglycine, or quisqualate) was added to the cells, and the response of the cells was measured.
The above described assay can be operated in two modes. In the first mode, a range of concentrations of the present compounds were added to cells, followed by a single fixed concentration of agonist. If a compound acted as a potentiator, an EC50 value for potentiation and a maximum extent of potentiation by the compound at this concentration of agonist was determined by non-linear curve fitting. In the second mode, several fixed concentrations of the present compounds were added to various wells on a plate, followed by a range of concentrations of agonist for each concentration of present compound; the EC50 values for the agonist at each concentration of compound were determined by non-linear curve fitting. A decrease in the EC50 value of the agonist with increasing concentrations of the present compounds (a leftward shift of the agonist concentration-response curve) is an indication of the degree of mGluR5 potentiation at a given concentration of the present compound. An increase in the EC50 value of the agonist with increasing concentrations of the present compounds (a rightward shift of the agonist concentration-response curve) is an indication of the degree of mGluR5 antagonism at a given concentration of the present compound. The second mode also indicates whether the present compounds also affect the maximum response to mGluR5 to agonists.
Human mGluR5a cDNA in pCMV6-XL6 mammalian expression plasmid was purchased from OriGene Technologies, Inc. (catalogue number SC326357) and subcloned into pcDNA3.1(−). Human embryonic kidney (HEK)293A cells were then transfected with human mGluR5a pcDNA3.1(−) using LipofectAmine2000 (Invitrogen) and monoclones were selected and tested for functional response using a Ca^2+ mobilization assay. Monoclones were named for the species (“H” for human) plus the location on the plate (e.g. “10H”).
HEK cells transfected with the human mGluR5a receptor (H10H or H12H cell line) were plated at 15,000 cells/well in clear-bottomed poly-D-lysine-coated assay plates (BD Falcon) in glutamate-glutamine-free growth medium and incubated overnight at 37° C. and 5% CO2. Cell-lines used were either the H10H or H12H cell-lines expressing the human mGluR5 receptor. The following day, the growth medium was removed and the cells were washed with assay buffer containing 1× Hank's balanced salt solution (Invitrogen, Carlsbad, Calif.), 20 mM HEPES, 2.5 mM probenecid, pH 7.4 and left with 20 μL of this reagent. Following this step, the cells were loaded with calcium indicator dye, fluo-4 AM, to a final concentration of 2 μM and incubated for 40-45 min at 37° C. The dye solution was removed and replaced with assay buffer. Cell plates were held for 10-15 min at room temperature and were then loaded into the Functional Drug Screening System 6000 (FDSS 6000, Hamamatsu, Japan).
After establishment of a fluorescence baseline for about 3 seconds, the compounds of the present invention were added to the cells, and the response in cells was measured.

Structure (SMILES)	% Reversal of amphetamine-induced hyperlocomotion ([1]; 3 mg/kg test compound p.o. + 1 mg/kg Amph s.c.)	% Reversal of amphetamine-induced hyperlocomotion ([1]; 10 mg/kg test compound p.o. + 1 mg/kg Amph s.c.)	% Reversal of amphetamine-induced hyperlocomotion ([1]; 30 mg/kg test compound p.o. + 1 mg/kg Amph s.c.)	% Reversal of amphetamine-induced hyperlocomotion ([1]; 56.6 mg/kg test compound p.o. + 1 mg/kg Amph s.c.)	% Reversal of amphetamine-induced hyperlocomotion ([1]; 100 mg/kg test compound p.o. + 1 mg/kg Amph s.c.)	melting point	EC50 [2]	Emax [2]
O=C(c1ccc(F)cc1)N1CCn2nc(OCc3ccccc3)cc2C1 [test compound, 2-(benzyloxy)-5-[(4-fluorophenyl)carbonyl]-4,5,6,7-tetrahydropyrazolo[1,5-a]pyrazine]	14%	32%	44%	42%	41%	187.7 °C	–	–
N#Cc1cccc(COc2cc3n(n2)CCN(C(=O)c2ccccc2)C3)c1 [Example B95]	–	–	–	–	–	150.4 °C	66.1 nM	48.5%
N#Cc1cccc(C(=O)N2CCn3nc(OCc4ccccc4)cc3C2)c1 [Example B5]	–	–	–	–	–	151.6 °C	724 nM	42%
N#Cc1cccc(COc2cc3n(n2)CCN(C(=O)c2ccccc2Cl)C3)c1 [Example B131]	–	–	–	–	–	116.8 °C	> 30200 nM	16%
O=C(c1cc(F)ccc1F)N1CCn2nc(OCc3ccccc3)cc2C1 [Example B114]	–	–	–	–	–	123.7 °C	417 nM	72%
O=C(c1cc(F)cc(F)c1)N1CCn2nc(OCc3ccccc3)cc2C1 [Example B104]	–	–	–	–	–	165.2 °C	138 nM	44.5%
Cc1ncccc1C(=O)N1CCn2nc(OCc3ccccc3)cc2C1 [Example B34]	–	–	–	–	–	129.2 °C	> 30200 nM	28%
O=C(c1cc(F)cc(F)c1)N1CCn2nc(OCc3cccc(F)c3)cc2C1 [Example B94]	–	–	–	–	–	154.7 °C	61.7 nM	25%
O=C(c1ccc(F)cc1)N1CCn2nc(OCc3ccncc3)cc2C1 [Example B20]	–	–	–	–	–	178.8 °C	457 nM	53%
COc1ccc(COc2cc3n(n2)CCN(C(=O)c2ccc(F)cc2)C3)cc1 [Example B15]	–	–	–	–	–	108.3 °C	> 30200 nM	22%
N#Cc1cccc(COc2cc3n(n2)CCN(C(=O)c2cccc(F)c2)C3)c1 [Example B106]	–	–	–	–	–	103.3 °C	166 nM	37%
N#Cc1cccc(COc2cc3n(n2)CCN(C(=O)c2ccc(F)cc2)C3)c1 [Example B3, 3-[({5-[(4-fluorophenyl)carbonyl]-4,5,6,7-tetrahydropyrazolo[1,5-a]pyrazin-2-yl}oxy)methyl]benzonitrile]	–	–	–	–	–	> 300 °C	126 nM	60%
O=C(c1ccc(F)cc1F)N1CCn2nc(OCc3cccc(F)c3)cc2C1 [Example B129]	–	–	–	–	–	115.4 °C	97.7 nM	68%
O=C(c1ccc(F)cc1)N1CCn2nc(OCc3ccc(F)cc3)cc2C1 [Example B9]	–	–	–	–	–	165.4 °C	479 nM	54%
